Measurements taken from ChEMBL document CHEMBL4196118, “Discovery of MK-8318, a Potent and Selective CRTh2 Receptor Antagonist for the Treatment of Asthma” (ACS Med Chem Lett, 2018).

Legend:
[1] = target: T1, Prostaglandin D2 receptor 2 (Homo sapiens, UniProt Q9Y5Y4); assay: biochemical
T1 sequence (Q9Y5Y4 whole entry): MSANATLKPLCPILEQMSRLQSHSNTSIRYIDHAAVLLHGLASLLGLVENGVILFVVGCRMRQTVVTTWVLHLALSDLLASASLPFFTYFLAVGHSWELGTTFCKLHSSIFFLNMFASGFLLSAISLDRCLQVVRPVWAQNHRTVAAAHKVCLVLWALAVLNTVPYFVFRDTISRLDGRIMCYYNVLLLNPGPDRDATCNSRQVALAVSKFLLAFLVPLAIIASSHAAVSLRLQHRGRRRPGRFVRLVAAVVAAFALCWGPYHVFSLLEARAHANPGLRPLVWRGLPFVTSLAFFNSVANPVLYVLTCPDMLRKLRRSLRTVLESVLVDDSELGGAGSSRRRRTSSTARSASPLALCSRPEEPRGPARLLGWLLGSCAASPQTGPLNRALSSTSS
Description: Displacement of [3H]PGD2 from human CRTh2 expressed in HEK cell membranes after 60 mins by scintillation counting method

[2] = target: T1, Prostaglandin D2 receptor 2
Description: Antagonist activity at human CRTh2 expressed in CHOK1 cells assessed as inhibition of PGD2-induced beta-arrestin recruitment incubated for 30 mins followed by PGD2 stimulation measured after 60 mins by PathHunter based chemiluminescence assay

[3] = target: T1, Prostaglandin D2 receptor 2; remark: listed apart in the source
[4] = Intrinsic clearance in rat hepatocytes assessed per million cells; type: ADME, cell-based, Hepatocyte; conditions: read-out: CLH
[5] = AUC (0 to 6 hrs) in rat at 0.5 mg/kg, iv; type: ADME, organism-based; set-up: time < 6 hr, dose 0.5 mg/kg, route intravenous; conditions: in vivo
[6] = AUC (0 to 6 hrs) in rat at 2 mg/kg, iv; type: ADME, organism-based; set-up: time < 6 hr, dose 2 mg/kg, route intravenous; conditions: in vivo
[7] = target: T1, Prostaglandin D2 receptor 2; assay: […] activity at human CRTh2 expressed in HEK cells assessed as forskolin-induced intracellular cAMP accumulation by ELISA based chemiluminescence assay; type: functional, cell-based

CN(C(=O)CCC(=O)O)[C@H]1c2ccccc2N(C(=O)c2ccc(OC(F)(F)F)cc2)[C@H]2CCCC12 (single isomer, unassigned)
Ki [1]: 16 nM

O=C(O)COC(=O)N(C1CC1)[C@H]1c2ccccc2N(C(=O)c2cccc(F)c2)[C@H]2CC[C@H]21
IC50 [2]: 1.1 nM | IC50 [3]: 0.8 nM | hepatocyte CLint [4]: 20 µL/min/1e6 cells | Ki [1]: 4.1 nM

C[C@@H](OC(=O)N1c2ccccc2[C@H](N(C(=O)CCC(=O)O)C2CC2)[C@@H]2CCC[C@@H]21)c1ccc(F)cc1
AUC(0-t) at 6 h [5]: 0.63 µM·h

O=C(O)CCC(=O)N(C1CC1)[C@H]1c2ccccc2N(C(=O)c2cccc(F)c2)[C@H]2CC[C@H]21
IC50 [2]: 9.3 nM | hepatocyte CLint [4]: 16 µL/min/1e6 cells | AUC(0-t) at 6 h [5]: 0.3 µM·h | Ki [1]: 8.1 nM

CC(C)(CC(=O)N(C1CC1)[C@H]1c2ccccc2N(C(=O)OCc2ccccc2)[C@H]2CCC[C@H]21)C(=O)O
Ki [1]: 7800 nM

CC(CC(=O)N(C1CC1)[C@H]1c2ccccc2N(C(=O)OCc2ccccc2)[C@H]2CCC[C@H]21)C(=O)O (some centres not stated)
Ki [1]: 510 nM

O=C(O)CCC(=O)N(C1CC1)[C@H]1c2cc(F)c(Cl)cc2N(C(=O)c2ccc(OC(F)(F)F)cc2)[C@H]2CCC[C@H]21
IC50 [2]: 12 nM | IC50 [3]: 18 nM | AUC(0-t) at 6 h [5]: 1.05 µM·h | Ki [1]: 3.4 nM

O=C(O)CCC(=O)N(C1CC1)[C@H]1c2ccc(F)cc2N(C(=O)c2ccc(OC(F)(F)F)cc2)[C@H]2CCC[C@H]21
AUC(0-t) at 6 h [5]: 0.043 µM·h

CCN(C(C)=O)[C@H]1c2ccccc2N(C(=O)c2ccccc2)[C@H]2CCC[C@@H]12
IC50 [3]: 1840 nM | Ki [1]: 26 nM

O=C(O)CCC(=O)N(C1CC1)[C@H]1c2ccccc2N(C(=O)Nc2ccccc2)[C@H]2CCC[C@H]21
Ki [1]: 56 nM

O=C(O)CCC(=O)N(C1CC1)[C@H]1c2ccccc2N(C(=O)c2ccc(OC(F)(F)F)cc2)[C@H]2CCCC21 (single isomer, unassigned)
AUC(0-t) at 6 h [5]: 0.62 µM·h | Ki [1]: 7 nM

O=C(O)COC(=O)N(C1CC1)C1c2ccccc2N(C(=O)c2ccccc2)C2CCCC21 (racemic)
Ki [1]: 9.4 nM

O=C(O)CCC(=O)N(C1CC1)[C@H]1c2ccc(Cl)cc2N(C(=O)c2ccc(OC(F)(F)F)cc2)[C@H]2CCC[C@H]21
IC50 [2]: 59 nM | IC50 [3]: 110 nM | Ki [1]: 2.3 nM

CCN(C(=O)CCC(=O)O)[C@H]1c2ccccc2N(C(=O)c2ccc(OC(F)(F)F)cc2)[C@H]2CCCC12 (single isomer, unassigned)
Ki [1]: 12 nM

O=C(O)CCC(=O)N(C1CC1)C1c2ccccc2N(C(=O)c2ccccc2)C2CCCC21 (racemic)
IC50 [3]: 41 nM | Ki [1]: 10 nM

O=C(O)CCC(=O)N(C1CCC1)[C@H]1c2ccccc2N(C(=O)c2ccc(OC(F)(F)F)cc2)[C@H]2CCCC21 (single isomer, unassigned)
Ki [1]: 8.6 nM

O=C(O)CCC(=O)N(C1CC1)[C@H]1c2ccccc2N(C(=O)c2ccc(F)cc2)[C@H]2CC[C@H]21
IC50 [2]: 12 nM | IC50 [3]: 20 nM | hepatocyte CLint [4]: 14 µL/min/1e6 cells | AUC(0-t) at 6 h [5]: 0.46 µM·h | Ki [1]: 7.3 nM

O=C(O)CCC(=O)N(CCC(F)(F)F)[C@H]1c2ccccc2N(C(=O)c2ccc(OC(F)(F)F)cc2)[C@H]2CCCC12 (single isomer, unassigned)
Ki [1]: 35 nM

O=C(O)CCC(=O)N(C1CC1)[C@H]1c2ccccc2N(C(=O)c2ccc(OC(F)(F)F)cc2)[C@H]2CC[C@H]21
hepatocyte CLint [4]: 13 µL/min/1e6 cells

O=C(O)CCC(=O)N(C1CC1)[C@H]1c2cc(C(F)F)ccc2N(C(=O)c2ccc(OC(F)(F)F)cc2)[C@H]2CCC[C@H]21
Ki [1]: 14 nM

O=C(O)CCC(=O)N(C1CC1)[C@H]1c2ccccc2N(CC(=O)Nc2ccc(F)cc2)[C@H]2CCC[C@H]21
Ki [1]: 660 nM

O=C(O)CCC(=O)N(C1CC1)[C@H]1c2ccccc2N(C(=O)c2cccc(OC(F)(F)F)c2)[C@H]2CC[C@H]21
IC50 [2]: 43 nM | hepatocyte CLint [4]: 15 µL/min/1e6 cells | AUC(0-t) at 6 h [5]: 0.31 µM·h | Ki [1]: 5 nM

CC1(N(C(=O)CCC(=O)O)[C@H]2c3ccccc3N(C(=O)c3ccc(OC(F)(F)F)cc3)[C@H]3CCCC32)CC1 (single isomer, unassigned)
Ki [1]: 64 nM

O=C(O)CCC(=O)N(C1CC1)[C@H]1c2cc(F)ccc2N(C(=O)c2ccc(SC(F)(F)F)cc2)[C@H]2CCC[C@H]21
IC50 [2]: 2.4 nM | AUC(0-t) at 6 h [6]: 1.87 µM·h | IC50 [3]: 12 nM | Ki [1]: 8.4 nM

C[C@H](OC(=O)N1c2ccccc2[C@H](N(C(=O)CCC(=O)O)C2CC2)[C@@H]2CCC[C@@H]21)c1ccc(F)cc1
AUC(0-t) at 6 h [5]: 0.32 µM·h

O=C(c1ccc(OC(F)(F)F)cc1)N1c2ccccc2[C@H](N(C(=O)CCc2nn[nH]n2)C2CC2)[C@@H]2CCC[C@@H]21
Ki [1]: 98 nM

O=C(O)CCC(=O)N(C1CC1)[C@H]1c2cc(-c3cncnc3)ccc2N(C(=O)c2ccc(OC(F)(F)F)cc2)[C@H]2CCC[C@H]21
Ki [1]: 300 nM

C[C@H](CC(=O)N(C1CC1)[C@H]1c2ccccc2N(C(=O)OCc2ccccc2)[C@H]2CCC[C@H]21)C(=O)O
Ki [1]: 82 nM

O=C(O)c1ccccc1C(=O)N(C1CC1)[C@H]1c2ccccc2N(C(=O)c2ccc(OC(F)(F)F)cc2)[C@H]2CCC[C@H]21
Ki [1]: 840 nM

O=C(O)CCC(=O)N(C1CC1)[C@H]1c2ccccc2N(C(=O)OCc2ccc(F)cc2)[C@H]2CCC[C@H]21
AUC(0-t) at 6 h [5]: 0.27 µM·h | Ki [1]: 12 nM

CCc1ccc2c(c1)[C@H](N(C(=O)CCC(=O)O)C1CC1)[C@@H]1CCC[C@@H]1N2C(=O)c1ccc(OC(F)(F)F)cc1
Ki [1]: 31 nM

O=C(O)CCC(=O)N(C1CC1)[C@H]1c2cc(C3CC3)ccc2N(C(=O)c2ccc(OC(F)(F)F)cc2)[C@H]2CCC[C@H]21
Ki [1]: 43 nM

O=C(O)COC(=O)N(C1CC1)[C@H]1c2ccccc2N(C(=O)c2ccc(F)cc2)[C@H]2CC[C@H]21
IC50 [2]: 1.4 nM | IC50 [3]: 2 nM | hepatocyte CLint [4]: 13 µL/min/1e6 cells | Ki [1]: 3.5 nM

O=C(O)CCCC(=O)N(C1CC1)C1c2ccccc2N(C(=O)OCc2ccccc2)C2CCCC21 (racemic)
Ki [1]: 1490 nM

CC(C)N(C(=O)CCC(=O)O)[C@H]1c2ccccc2N(C(=O)c2ccc(OC(F)(F)F)cc2)[C@H]2CCCC21 (single isomer, unassigned)
Ki [1]: 50 nM

O=C(O)CCC(=O)N(CC1CCC1)[C@H]1c2ccccc2N(C(=O)c2ccc(OC(F)(F)F)cc2)[C@H]2CCCC12 (single isomer, unassigned)
Ki [1]: 9 nM

O=C(O)CCC(=O)N(C1CC1)[C@H]1c2cc(-c3ccc(F)cc3)ccc2N(C(=O)c2ccc(OC(F)(F)F)cc2)[C@H]2CCC[C@H]21
Ki [1]: 110 nM

O=C(O)COC(=O)N(C1CC1)[C@H]1c2ccccc2N(C(=O)c2ccc(OC(F)(F)F)cc2)[C@H]2CC[C@H]21
IC50 [2]: 1.4 nM | IC50 [3]: 0.9 nM | hepatocyte CLint [4]: 18 µL/min/1e6 cells | Ki [1]: 2.5 nM

O=C(O)CCC(=O)N(C1CC1)C1c2ccccc2N(C(=O)OCc2ccccc2)C2CCC21 (racemic)
IC50 [3]: 210 nM | Ki [1]: 25 nM

O=C(O)CCC(=O)N(C1CC1)C1c2ccccc2N(C(=O)OCc2ccccc2)C2CCCCC21 (racemic)
IC50 [3]: 175 nM | Ki [1]: 32 nM

O=C(O)CCC(=O)N(C1CC1)[C@H]1c2ccccc2N(c2nnc(-c3ccccc3)o2)[C@H]2CCC[C@H]21
Ki [1]: 28 nM

CCN(c1nc(C(=O)O)cs1)[C@H]1c2ccccc2N(C(=O)OCc2ccccc2)[C@H]2CCC[C@@H]12
IC50 [3]: 2920 nM | EC50 [7]: 12 nM | Ki [1]: 51 nM
